Patent US10919934B2, “Compositions and methods for managing respiratory conditions” (Emory University, priority 2017, dated 2021)
Where a SMILES comes first, the peptide text is derived from it.

Columns and labels:
alcohol-exposed AECs [1] = test: Quantification of % cells with 3 or more tight-junction spikes, alcohol-exposed AECs; assay type: cell-based, rat; details: for tight junction spikes versus control shRNA: alcohol exposed AECs transduced with lentiviral shRNA
Protocol: Morphologic disruption of tight junctions was not restricted to claudin-18, as claudin-5 and ZO-1 were also impaired in YFP-claudin-5-transduced AECs. To determine whether ZO-1 disruption was specifically linked to increased claudin-5, the effect of increased YFP-claudin-3 on ZO-1 localization by AECs was examined. […] In a complementary experiment, it was determined whether the ability of alcohol to induce formation of tight-junction spikes was antagonized by depleting claudin-5 using shRNA. […] Thus, claudin-5 was […] to enhance formation of tight-junction spikes.
(§1) To further confirm that spikes were sites of active claudin vesicle formation and fusion, the effects of the dynamin inhibitor Dynasore14 was examined on spike formation by alcohol-exposed AECs.

alcohol-exposed AECs [2] = test: Transepithelial resistance (TER), alcohol-exposed AECs; assay type: cell-based, rat; details: 10 mM peptide, 16 h (overnight); alcohol-exposed AECs on Transwell
Protocol: (§2) AECs isolated from control were cultured on Transwell permeable supports for 5 days and then either untreated (un), or incubated with 10 mM control peptide (con; Ac-LYQY(SEQ ID NO:35)-NH2) or a claudin-5 extracellular domain mimetic peptide (C5; Ac-EFYDP(SEQ ID NO:1)-NH2) for 16 h. The cells were examined for barrier function by transepithelial resistance (TER).
(§3) The difference between AECs isolated from control- and alcohol-fed animals (alcohol-exposed AECs) was evaluated using two different measures of barrier function: transepithelial resistance (TER) and paracellular flux to soluble tracer molecules. […] Thus, alcohol exposure has a deleterious effect on AEC tight junctions.

control AECs [3] = test: Transepithelial resistance (TER), control AECs; assay type: cell-based, rat; details: 10 mM peptide, 16 h
Protocol: as §2, §3

alcohol-exposed AECs [4] = test: Paracellular flux of tracers, alcohol-exposed AECs; assay type: cell-based, rat; details: 10 mM peptide, 16 h
Protocol: as §3

control AECs [5] = test: Paracellular flux of tracers, control AECs; assay type: cell-based, rat; details: 10 mM peptide, 16 h
Protocol: as §3

claudin-5 [6] = molecular target: T1, claudin-5 (Rattus norvegicus, UniProt Q9JKD6); test: Immunoblot for claudin-5, alcohol-exposed AECs; assay type: cell-based; details: peptide-treated cells from alcohol-fed rats; P=0.042 versus untreated, P=0.016 versus control
T1 construct: endogenous in cells; host or cells: primary alveolar epithelial cells (AECs) from alcohol-fed rats
T1 sequence (Q9JKD6 1-218): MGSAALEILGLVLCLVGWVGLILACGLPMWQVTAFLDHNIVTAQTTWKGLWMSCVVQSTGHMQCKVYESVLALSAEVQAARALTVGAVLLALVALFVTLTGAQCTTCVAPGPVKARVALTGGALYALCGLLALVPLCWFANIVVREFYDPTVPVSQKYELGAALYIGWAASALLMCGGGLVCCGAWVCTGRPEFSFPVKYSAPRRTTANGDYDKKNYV

claudin-18 = molecular target: T2, claudin-18 (Rattus norvegicus, UniProt Q5I0E5); test: Immunoblot for claudin-18, alcohol-exposed AECs; assay type: cell-based; details: peptide-treated alcohol-exposed AECs
T2 construct: endogenous in cells; host or cells: primary alveolar epithelial cells (AECs) from alcohol-fed rats
T2 sequence (Q5I0E5 1-261): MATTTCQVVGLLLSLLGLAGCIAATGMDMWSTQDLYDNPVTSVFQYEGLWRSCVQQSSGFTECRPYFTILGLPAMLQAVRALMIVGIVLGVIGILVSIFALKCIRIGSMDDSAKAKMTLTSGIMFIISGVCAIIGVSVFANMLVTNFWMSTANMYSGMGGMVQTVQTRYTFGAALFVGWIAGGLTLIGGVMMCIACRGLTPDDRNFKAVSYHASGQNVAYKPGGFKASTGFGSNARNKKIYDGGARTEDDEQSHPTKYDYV

ZO-1 = test: Immunoblot for ZO-1, alcohol-exposed AECs; assay type: cell-based, rat; details: peptide-treated alcohol-exposed AECs
claudin-1 = test: Claudin-1 content, alcohol-exposed AECs; assay type: cell-based, rat; details: peptide-treated alcohol-exposed AECs
Text: By contrast, control AECs were unaffected by the Ac-EFYDP(SEQ ID NO: 1)-NH2 peptide (FIG. 7A, C, E). A control peptide, Ac-LYQY (SEQ ID NO:35)-NH2, had no effect on AEC barrier function in either control or alcohol-exposed cells. The ability of Ac-EFYDP(SEQ ID NO: 1)-NH2 to improve the barrier function of alcohol-exposed AECs correlated with a decrease in tight-junction spike formation (FIG. 7G) and a specific decrease in total claudin-5 content (FIG. 7I). Claudin-18 and ZO-1 were unaffected (FIG. 7I) as was claudin-1.

control AECs [7] = details: normal AECs treated with inhibitor; cited from earlier work
claudin-5 [8] = details: normal AECs treated with inhibitor; cited from earlier work
control AECs [9] = test: Quantification of % cells with 3 or more tight-junction spikes, control AECs; assay type: cell-based, rat; details: Dynasore treatment
Text: as §1

alcohol-exposed AECs [10] = test: Live-cell imaging of YFP-claudin-18 in alcohol-exposed AECs; assay type: cell-based, rat; details: Dynasore-treated alcohol-exposed AECs
Text: as §1

claudin-3 and claudin-4 = details: cited from earlier work

Molecule: CC(=O)NC(CCC(=O)O)C(=O)NC(Cc1ccccc1)C(=O)NC(Cc1ccc(O)cc1)C(=O)NC(CC(=O)O)C(=O)N1CCCC1C(N)=O (stereo not shown) [Ac-EFYDP(SEQ ID NO: 1)-NH2, Ac-EFYDP(SEQ ID NO:1)-NH2] (Ac-EFYDP-NH2; configuration not given here)
- tight-junction spike formation (alcohol-exposed AECs [1]; peptide-treated alcohol-exposed AECs, P<0.001 versus untreated and control peptide): decrease
- TER (alcohol-exposed AECs [2]): increase
- TER (control AECs [3]): unaffected
- paracellular flux of 10 kDa Texas Red dextran (alcohol-exposed AECs [4]): decrease
- paracellular flux of calcein (alcohol-exposed AECs [4]): decrease
- paracellular flux of 10 kDa Texas Red dextran (control AECs [5]): unaffected
- paracellular flux of calcein (control AECs [5]): unaffected
- total claudin-5 content (immunoblot) (claudin-5 [6]): significant and specific decrease
- claudin-18 content (immunoblot) (claudin-18): unaffected
- ZO-1 content (immunoblot) (ZO-1): unaffected
- claudin-1 content (claudin-1): unaffected

Molecule: Cc1ccc2nc(NCCN)c3ncc(C)n3c2c1 [BMS-345541]
- formation of tight-junction spikes (control AECs [7]): increased
- claudin-5 expression (claudin-5 [8]): increased

Molecule: O=C(NN=Cc1ccc(O)c(O)c1)c1cc2ccccc2cc1O [Dynasore, N′-(3,4-dihydroxybenzylidene)-3-hydroxy-2-naphthohydrazide]
- % cells containing 3 or more tight junction spikes oriented towards the nucleus (alcohol-exposed AECs [1]; 160 μM for 4 h, cells from alcohol fed rats, P=0.002): significantly decreased
- spike formation by control cells (control AECs [9]): did not have a significant effect
- punctate YFP-claudin-18 labelling (alcohol-exposed AECs [10]): increase

Molecule: Ac-DFYNP-NH2
- effectiveness of D-amino acid version relative to corresponding L-amino acid version (claudin-3 and claudin-4): 10-100 fold

Molecule: Ac-LYQY(SEQ ID NO:35)-NH2 (Ac-LYQY-NH2) [Ac-LYQY (SEQ ID NO:35)-NH2, control peptide, reference compound]
- TER (alcohol-exposed AECs [2]): no effect
- TER (control AECs [3]): no effect
- paracellular flux of 10 kDa Texas Red dextran (alcohol-exposed AECs [4]): no effect
- paracellular flux of calcein (alcohol-exposed AECs [4]): no effect
- paracellular flux of 10 kDa Texas Red dextran (control AECs [5]): no effect
- paracellular flux of calcein (control AECs [5]): no effect

B1: shRNA2: lentiviral short hairpin RNA targeting claudin-5, 1594-1612, SEQ ID NO: 29/30 (nucleic acid)
chain 1: CCCCCCACCAAACTGCCGCTAACTTCAAGAGAGTTAGCGGCAGTTTGGTGGTTTTTGG
chain 2: CCAAAAACCACCAAACTGCCGCTAACTCTCTTGAAGTTAGCGGCAGTTTGGTGGGGGG
- tight junction spikes versus control shRNA (alcohol-exposed AECs [1]): trend towards decreased spikes

B2: claudin-5 shRNA1: lentiviral short hairpin RNA targeting claudin-5, 616-624, SEQ ID NO: 27/28 (nucleic acid)
chain 1: CCCCCCAACGGCGATTACGACAATTCAAGAGATTGTCGTAATCGCCGTTGGTTTTTGG
chain 2: CCAAAAACCAACGGCGATTACGACAATCTCTTGAATTGTCGTAATCGCCGTTGGGGGG
- tight junction spikes versus control shRNA (alcohol-exposed AECs [1]): significantly fewer
